Laboratory results from US5637262A, “Photochromic substituted naphthopyran compounds” (Transitions Optical, Inc., priority 1995, dated 1997).

Experiments:
Format in all cases: physicochemical
[1] = Activating wavelength by UV spectrophotometer (diethylene glycol dimethyl ether); conditions: for ACTIVATING WAVELENGTH: Table 3; for Activating Wavelength in Diethylene Glycol Dimethyl Ether: Table 1, approximately 0.5 milligram per milliliter in diethylene glycol dimethyl ether
Method: The products of Examples 1, 5, 8, 9, and Comparative Examples 1 and 2 were dissolved in diethylene glycol dimethyl ether. The concentrations of the resulting solutions were approximately 0.5 milligram per milliliter. Each solution was tested in a UV spectrophotometer to determine its activating wavelength. The activating wavelength reported in Table 1 is the wavelength at which activation of the photochromic compound occurs in diethylene glycol dimethyl ether. That value corresponds to the absorption peak in the ultraviolet region that is closest to the visible region or the threshold range, i.e., 390 to 410 nanometers, if there is only one absorption peak in this region. If there is more than one absorption peak, the activating wavelength corresponds most closely to the absorption peak that immediately proceeds the peak of longer wavelength in the ultraviolet region or the threshold range.

[2] = Solar response / loss in response on optical bench with 320 nm and 360 nm filters (Part C); conditions: for Δ OD @ 320 nm / Δ OD @ 360 nm: 15 minute exposure; for Δ OD @ 320 nm: 320 nanometer filter; for Δ OD @ 360 nm: 360 nanometer filter; for % LOSS IN RESPONSE: (OD 320 nm - OD 360 nm)/OD 320 nm x 100; for BLEACH RATE T 1/2: polymeric matrix prepared from a diethylene glycol bis(allyl carbonate) composition
Method: (§1) The test samples were evaluated for photochromic response rates on an optical bench. The samples were illuminated by a 150 watt Xenon lamp fitted with a copper sulfate bath, a 320 nanometer filter, and a neutral density filter at an intensity of about one sun. A second beam of light provided by a filtered tungsten lamp arranged to pass through the sample area exposed by the UV source was used to monitor changes in transmission of the sample over different wavelength ranges in the visible region of the spectrum. The intensity of the monitoring beam after passing through the sample was measured by means of an IL-1500 radiometer equipped with a silicon detector head and matching filters.
The Δ OD/Min, which represents the sensitivity of the photochromic compound's response to UV light, was measured using photopic filters on the silicon detector. The response of the filtered detector approximated the luminosity curve. The Δ OD was measured over the first five (5) seconds of UV exposure, then expressed on a per minute basis. The saturation optical density (OD) was taken under identical conditions as the Δ OD/Min, except UV exposure was continued for 20 minutes for the examples in Table 2. The Bleach Rate T 1/2 is the time interval in seconds for the absorbance of the activated form of the naphthopyran in the test polymers to reach one half the highest absorbance at room temperature (72° F., 22.2° C.) after removal of the source of activating light.
The solar response for naphthopyrans of Example 7 and Comparative Examples 3 and 4 was measured using the optical bench described in Part B. The naphthopyrans were imbibed by thermal transfer into test squares of a polymeric matrix prepared from a diethylene glycol bis(allyl carbonate) composition and two optical density measurements were made after 15 minute exposures to a UV source first fitted with a 320 nanometer filter and then fitted with a 360 nanometer filter. The loss in response was calculated by subtracting the optical density obtained with the 360 nanometer filter from the optical density obtained with the 320 nanometer filter and then dividing this figure by the optical density obtained with the 320 nanometer filter and multiplying by 100.
The loss in response measurement, expressed as a percent, simulates the difference between the photochromic response of the compounds exposed to full mid-day sun and to low light conditions, such as early day and late in the day when the lower wavelength components of the UV spectrum are attenuated.

[3] = Photochromic response on optical bench in homopolymer of diethylene glycol bis(allyl carbonate) test squares (Part B); conditions: for BLEACH RATE T 1/2: Table 2, room temperature (72° F., 22.2° C.), homopolymer of diethylene glycol bis(allyl carbonate); for Δ OD @ SATURATION: UV exposure 20 minutes; for Δ OD @ SATURATION / Δ OD/Min SENSITIVITY: 320 nanometer filter, homopolymer test squares; for Δ OD/Min SENSITIVITY: first five (5) seconds of UV exposure, per minute basis
Method: Each naphthopyran was dissolved into toluene solvent to form a 4 weight percent solution of the compound. A piece of No. 4 Whatman filter paper was saturated with the naphthopyran solution and allowed to air dry. The dried filter paper was placed on one side of the polymer test square, which measured 1/8 inch (0.3 centimeter)×2 inch (5.1 centimeters)×2 inch (5.1 centimeters). A piece of untreated filter paper was placed on the other side of the polymer test square and the resulting sandwich placed between two plates of flat aluminum metal plates. […] The imbibed test squares were washed with acetone after removal from the oven.
as §1
The Δ OD/Min, which represents the sensitivity of the photochromic compound's response to UV light, was measured using photopic filters on the silicon detector. The response of the filtered detector approximated the luminosity curve. The Δ OD was measured over the first five (5) seconds of UV exposure, then expressed on a per minute basis. The saturation optical density (OD) was taken under identical conditions as the Δ OD/Min, except UV exposure was continued for 20 minutes for the examples in Table 2.

Row | SMILES | ACTIVATING WAVELENGTH [1] | Δ OD @ 320 nm [2] | Δ OD @ 360 nm [2] | % LOSS IN RESPONSE [2] | BLEACH RATE T 1/2 ([2]; Table 3) | Activating Wavelength in Diethylene Glycol Dimethyl Ether [1] | BLEACH RATE T 1/2 [3] | Δ OD @ SATURATION [3] | Δ OD/Min SENSITIVITY [3] | further results
1 | COc1ccc(C2(c3ccccc3F)C=Cc3c(ccc4cc(OC)ccc34)O2)cc1 (stereo not drawn) [Comparative Example 3, 3-(2-fluorophenyl)-3-(4-methoxyphenyl)-8-methoxy-3H-naphtho[2,1-b]pyran] | 359 nm | 0.266 | 0.249 | 6% | 5.93 min |  |  |  |  | 
2 | CCCOC(=O)c1cc2c3c(ccc2cc1O)OC(c1ccccc1)(c1ccccc1)C=C3 [Example 1, 3,3-diphenyl-8-hydroxy-9-carbopropoxy-3H-naphtho[2,1-b]pyran] |  |  |  |  |  | 408 nm |  |  |  | 
3 | CCCOC(=O)c1cc2c3c(ccc2cc1OC)OC(c1ccccc1)(c1ccccc1)C=C3 [Example 5, 3,3-diphenyl-8-methoxy-9-carbopropoxy-3H-naphtho[2,1-b]pyran] |  |  |  |  |  | 382 nm | 1.33 min | 0.55 | 1.4 Δ OD/Min | Sensitivity (in words) ([3]; compared to comparative examples 1 and 2): increased sensitivity as compared to the compounds of comparative examples 1 and 2
4 | COC(=O)c1cc2c3c(ccc2cc1OC)OC(c1ccc(OC)cc1)(c1ccccc1F)C=C3 (stereo not drawn) [Example 7, 3-(2-fluorophenyl)-3-(4-methoxyphenyl)-8-methoxy-9-carbomethoxy-3H-naphtho[2,1-b]pyran] | 384 nm | 0.187 | 0.184 | 2% | 3.27 min |  |  |  |  | Bleach Rate T 1/2, i.e., rate of fade (in words) ([2]; Table 3): more acceptable Bleach Rate T 1/2; Reduction in optical density, 360 nm vs 320 nm cutoff filter (in words) ([2]; compared to comparative examples 3 and 4): less reduction in optical density
5 | COC(=O)c1cc2c3c(ccc2cc1OC(C)=O)OC(c1ccc(OC)cc1)(c1ccc(OC)cc1OC)C=C3 (stereo not drawn) [Example 8, 3-(2,4-dimethoxy-phenyl)-3-(4-methoxyphenyl)-8-acetoxy-9-carbomethoxy-3H-naphtho-[2,1-b]pyran] |  |  |  |  |  | 376 nm |  |  |  | 
6 | COc1ccc2c3c(ccc2c1C)OC(c1ccccc1)(c1ccccc1)C=C3 [Example 9, 3,3-diphenyl-7-methyl-8-methoxy-3H-naphtho[2,1-b]pyran] |  |  |  |  |  | 369 nm |  |  |  | 
7 | COc1ccc2c3c(ccc2c1)OC(c1ccccc1)(c1ccccc1)C=C3 [compound 1, 3,3-diphenyl-8-methoxy-3H-naphtho [2,1-b]pyran] |  |  |  |  |  | 359 nm | 1.45 min | 0.73 | 1.25 Δ OD/Min | 
8 | C1=CC(c2ccccc2)(c2ccccc2)Oc2ccc3ccccc3c21 [compound 2, 3,3-diphenyl-3H-naphtho[2,1-b]pyran] |  |  |  |  |  | 348 nm | 0.75 min | 0.36 | 0.87 Δ OD/Min | 
9 | COc1ccc(C2(c3ccc(OC)cc3OC)C=Cc3c(ccc4ccccc34)O2)cc1 (stereo not drawn) [compound 4, 3-(2,4-dimethoxyphenyl)-3-(4-methoxyphenyl)-3H-naphtho[2,1-b]pyran] | 348 nm | 0.260 | 0.196 | 25% | 5.63 min |  |  |  |  | 
